According to PMC10824666 (Nature Cancer, 2023):
Where two headings read alike, the source gives them in different places. Blank lines part the entries; values can stand above or below the molecule they belong to.

Legend:
Assay in all cases: biochemical
Design in all cases: Eurofins DiscoverX kinase panel, competitive binding assay at 1 uM, percent of DMSO control
Details in all cases: competitive binding, percent of DMSO control
[1] = biological target: GSK3B (Homo sapiens, UniProt P49841)
Summary of the method: (§1)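 Single-point profiling at 1 µM compound in a competition-binding format against 96 kinases, read out as POC relative to control; n = 1.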

[2] = biological target: T1, PAK 2 (Homo sapiens, UniProt Q13177)
T1 construct: gene PAK2
T1 sequence (Q13177 whole entry): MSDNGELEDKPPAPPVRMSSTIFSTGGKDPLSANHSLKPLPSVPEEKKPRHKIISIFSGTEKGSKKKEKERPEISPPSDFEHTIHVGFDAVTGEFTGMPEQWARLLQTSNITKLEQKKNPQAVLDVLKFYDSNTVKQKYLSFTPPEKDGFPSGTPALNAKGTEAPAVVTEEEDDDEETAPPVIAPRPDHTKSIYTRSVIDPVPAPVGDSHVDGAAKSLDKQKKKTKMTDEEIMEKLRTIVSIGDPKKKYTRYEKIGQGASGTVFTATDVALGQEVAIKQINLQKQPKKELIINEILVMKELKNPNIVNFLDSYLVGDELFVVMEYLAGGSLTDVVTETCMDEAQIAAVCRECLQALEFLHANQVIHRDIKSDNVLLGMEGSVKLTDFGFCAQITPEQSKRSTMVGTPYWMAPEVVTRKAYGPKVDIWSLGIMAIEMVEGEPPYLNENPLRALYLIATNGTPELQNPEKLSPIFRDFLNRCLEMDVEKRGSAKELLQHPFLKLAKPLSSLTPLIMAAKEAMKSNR
Summary of the method: as §1

[3] = biological target: INSR (Homo sapiens, UniProt P06213)
Summary of the method: as §1

[4] = biological target: T2, Trk-A (Homo sapiens, UniProt P04629)
T2 construct: gene NTRK1
T2 sequence (P04629 whole entry): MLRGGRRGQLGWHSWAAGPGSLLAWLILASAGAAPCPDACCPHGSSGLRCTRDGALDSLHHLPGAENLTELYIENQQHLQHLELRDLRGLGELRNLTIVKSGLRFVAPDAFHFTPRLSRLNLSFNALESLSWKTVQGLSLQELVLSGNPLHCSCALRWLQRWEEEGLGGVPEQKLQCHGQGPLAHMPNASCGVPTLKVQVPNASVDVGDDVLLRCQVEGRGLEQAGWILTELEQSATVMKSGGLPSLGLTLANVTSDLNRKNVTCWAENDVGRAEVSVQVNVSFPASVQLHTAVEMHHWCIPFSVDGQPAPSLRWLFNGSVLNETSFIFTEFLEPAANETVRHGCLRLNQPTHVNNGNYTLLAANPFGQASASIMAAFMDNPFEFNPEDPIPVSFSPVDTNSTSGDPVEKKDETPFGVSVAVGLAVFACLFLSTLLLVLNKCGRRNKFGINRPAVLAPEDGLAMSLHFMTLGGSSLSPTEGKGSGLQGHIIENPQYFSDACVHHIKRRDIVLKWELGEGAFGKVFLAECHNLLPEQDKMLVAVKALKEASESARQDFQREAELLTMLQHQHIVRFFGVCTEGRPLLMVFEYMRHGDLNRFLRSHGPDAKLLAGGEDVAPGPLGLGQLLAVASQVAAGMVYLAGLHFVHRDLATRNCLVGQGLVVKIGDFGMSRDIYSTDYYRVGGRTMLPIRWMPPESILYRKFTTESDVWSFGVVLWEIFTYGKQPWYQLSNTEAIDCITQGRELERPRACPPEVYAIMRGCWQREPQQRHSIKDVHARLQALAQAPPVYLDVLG
Summary of the method: as §1

[5] = biological target: T3, CHK1 (Homo sapiens, UniProt O14757)
T3 construct: gene CHEK1
T3 sequence (O14757 1-476): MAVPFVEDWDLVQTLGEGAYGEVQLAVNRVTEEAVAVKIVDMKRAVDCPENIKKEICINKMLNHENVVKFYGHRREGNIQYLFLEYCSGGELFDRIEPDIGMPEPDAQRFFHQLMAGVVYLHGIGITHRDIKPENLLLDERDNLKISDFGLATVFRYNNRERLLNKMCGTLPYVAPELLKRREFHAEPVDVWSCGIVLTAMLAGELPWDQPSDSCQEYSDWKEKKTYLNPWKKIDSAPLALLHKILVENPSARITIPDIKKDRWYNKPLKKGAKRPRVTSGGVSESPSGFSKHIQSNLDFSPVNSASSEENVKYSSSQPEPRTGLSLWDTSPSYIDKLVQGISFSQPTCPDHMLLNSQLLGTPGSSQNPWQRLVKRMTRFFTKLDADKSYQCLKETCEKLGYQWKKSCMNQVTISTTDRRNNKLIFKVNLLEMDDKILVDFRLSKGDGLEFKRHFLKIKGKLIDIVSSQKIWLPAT
Summary of the method: as §1

[6] = biological target: LIMK1 (Homo sapiens, UniProt P53667)
Chain of LIMK1 (P53667 whole entry): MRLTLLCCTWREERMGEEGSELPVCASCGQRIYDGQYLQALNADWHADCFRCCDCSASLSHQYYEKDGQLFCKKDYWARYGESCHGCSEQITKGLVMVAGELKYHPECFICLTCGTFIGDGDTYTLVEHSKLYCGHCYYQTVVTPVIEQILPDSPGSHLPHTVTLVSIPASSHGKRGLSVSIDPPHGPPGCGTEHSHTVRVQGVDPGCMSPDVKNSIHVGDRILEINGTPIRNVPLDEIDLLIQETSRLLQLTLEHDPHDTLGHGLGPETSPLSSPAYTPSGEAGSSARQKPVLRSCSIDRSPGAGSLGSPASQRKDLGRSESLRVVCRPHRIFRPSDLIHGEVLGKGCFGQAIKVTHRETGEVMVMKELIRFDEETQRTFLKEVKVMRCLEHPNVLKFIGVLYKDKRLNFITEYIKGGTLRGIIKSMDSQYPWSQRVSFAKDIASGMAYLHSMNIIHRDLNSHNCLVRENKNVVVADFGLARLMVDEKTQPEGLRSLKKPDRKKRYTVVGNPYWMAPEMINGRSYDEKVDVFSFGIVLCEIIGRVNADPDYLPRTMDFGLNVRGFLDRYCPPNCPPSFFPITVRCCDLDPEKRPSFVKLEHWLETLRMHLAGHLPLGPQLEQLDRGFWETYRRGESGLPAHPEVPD
Summary of the method: as §1

[7] = biological target: MAPK4 (Homo sapiens, UniProt P31152)
Chain of MAPK4 (P31152 whole entry): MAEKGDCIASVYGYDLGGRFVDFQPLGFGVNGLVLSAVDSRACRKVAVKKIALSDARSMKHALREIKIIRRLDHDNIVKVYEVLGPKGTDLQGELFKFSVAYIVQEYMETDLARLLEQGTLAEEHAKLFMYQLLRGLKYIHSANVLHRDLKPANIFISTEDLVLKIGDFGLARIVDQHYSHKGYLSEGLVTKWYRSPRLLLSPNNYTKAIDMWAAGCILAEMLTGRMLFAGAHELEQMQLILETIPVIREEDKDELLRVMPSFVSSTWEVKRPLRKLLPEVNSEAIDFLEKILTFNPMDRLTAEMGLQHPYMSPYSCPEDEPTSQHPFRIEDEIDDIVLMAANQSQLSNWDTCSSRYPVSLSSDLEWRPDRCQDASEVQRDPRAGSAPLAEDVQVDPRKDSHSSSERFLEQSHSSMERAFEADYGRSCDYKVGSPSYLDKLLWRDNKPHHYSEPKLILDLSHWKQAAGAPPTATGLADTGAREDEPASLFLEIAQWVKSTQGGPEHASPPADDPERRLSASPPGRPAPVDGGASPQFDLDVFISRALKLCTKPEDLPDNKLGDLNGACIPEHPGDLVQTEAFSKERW
Summary of the method: as §1

[8] = biological target: MAP3K9 (Homo sapiens, UniProt P80192)
Chain of MAP3K9 (P80192 whole entry): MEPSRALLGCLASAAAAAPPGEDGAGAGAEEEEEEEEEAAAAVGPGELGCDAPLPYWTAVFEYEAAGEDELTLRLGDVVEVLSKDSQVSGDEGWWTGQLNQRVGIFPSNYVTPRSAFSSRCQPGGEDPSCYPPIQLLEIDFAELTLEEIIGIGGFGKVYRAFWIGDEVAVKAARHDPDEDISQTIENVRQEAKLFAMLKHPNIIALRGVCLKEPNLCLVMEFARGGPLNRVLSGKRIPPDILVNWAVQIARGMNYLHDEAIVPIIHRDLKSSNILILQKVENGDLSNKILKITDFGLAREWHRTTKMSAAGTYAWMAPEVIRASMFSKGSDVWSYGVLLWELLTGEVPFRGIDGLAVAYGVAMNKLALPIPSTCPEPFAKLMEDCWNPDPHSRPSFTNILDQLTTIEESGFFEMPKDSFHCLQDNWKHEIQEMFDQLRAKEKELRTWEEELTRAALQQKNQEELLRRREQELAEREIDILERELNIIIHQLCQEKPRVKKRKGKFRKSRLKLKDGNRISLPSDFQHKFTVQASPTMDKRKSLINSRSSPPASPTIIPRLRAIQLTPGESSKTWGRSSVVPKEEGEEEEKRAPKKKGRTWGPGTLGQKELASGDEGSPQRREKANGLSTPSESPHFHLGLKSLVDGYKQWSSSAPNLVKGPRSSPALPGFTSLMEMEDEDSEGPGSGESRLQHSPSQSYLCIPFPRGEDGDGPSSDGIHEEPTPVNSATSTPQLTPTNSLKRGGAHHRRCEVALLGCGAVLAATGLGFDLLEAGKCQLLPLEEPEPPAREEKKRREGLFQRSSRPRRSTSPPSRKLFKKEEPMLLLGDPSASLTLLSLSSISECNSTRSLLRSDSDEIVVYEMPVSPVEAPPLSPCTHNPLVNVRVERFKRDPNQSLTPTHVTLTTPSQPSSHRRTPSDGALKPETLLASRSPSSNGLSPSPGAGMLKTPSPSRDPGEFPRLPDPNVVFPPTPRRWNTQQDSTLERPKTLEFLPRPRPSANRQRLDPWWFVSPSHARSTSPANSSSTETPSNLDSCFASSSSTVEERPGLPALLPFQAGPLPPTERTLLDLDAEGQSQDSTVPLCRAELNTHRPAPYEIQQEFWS
Summary of the method: as §1

[9] = biological target: LCK (Homo sapiens, UniProt P06239)
Chain of LCK (P06239 whole entry): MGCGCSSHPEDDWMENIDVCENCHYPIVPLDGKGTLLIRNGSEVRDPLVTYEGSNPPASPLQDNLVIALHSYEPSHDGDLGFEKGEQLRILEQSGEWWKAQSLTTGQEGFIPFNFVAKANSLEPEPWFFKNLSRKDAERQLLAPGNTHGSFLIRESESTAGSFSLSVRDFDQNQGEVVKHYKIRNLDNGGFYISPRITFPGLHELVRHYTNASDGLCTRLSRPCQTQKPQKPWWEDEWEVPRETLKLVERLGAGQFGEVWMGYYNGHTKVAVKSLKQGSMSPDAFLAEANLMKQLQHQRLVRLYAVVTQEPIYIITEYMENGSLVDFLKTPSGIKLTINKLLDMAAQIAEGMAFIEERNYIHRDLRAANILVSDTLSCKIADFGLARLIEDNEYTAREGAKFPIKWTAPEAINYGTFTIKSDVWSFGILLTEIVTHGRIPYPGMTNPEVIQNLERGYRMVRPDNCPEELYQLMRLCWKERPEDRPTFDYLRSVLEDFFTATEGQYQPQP
Summary of the method: as §1

[10] = read-out: Kinome Profiling performed by Eurofins DiscoverX / AM-1882, 1.0 µM / POC
[11] = read-out: Kinome Profiling performed by Eurofins DiscoverX / AM-5308, 1.0 µM / POC
[12] = read-out: Kinome Profiling performed by Eurofins DiscoverX / AM-0277, 1.0 µM / POC

Chain of GSK3B (P49841 whole entry): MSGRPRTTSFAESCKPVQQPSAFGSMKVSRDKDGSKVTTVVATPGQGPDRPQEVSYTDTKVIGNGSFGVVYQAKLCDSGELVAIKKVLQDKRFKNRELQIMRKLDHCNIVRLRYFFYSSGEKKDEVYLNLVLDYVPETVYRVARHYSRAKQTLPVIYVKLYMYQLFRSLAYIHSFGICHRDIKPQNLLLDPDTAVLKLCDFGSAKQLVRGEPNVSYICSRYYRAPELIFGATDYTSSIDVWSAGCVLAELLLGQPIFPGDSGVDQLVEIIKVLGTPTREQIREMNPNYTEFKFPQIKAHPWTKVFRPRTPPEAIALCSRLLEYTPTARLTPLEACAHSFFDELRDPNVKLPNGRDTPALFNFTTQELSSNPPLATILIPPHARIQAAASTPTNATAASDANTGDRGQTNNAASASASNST

remaining activity at 1 µM [1, 10]: 100%
remaining activity at 1 µM [2, 10]: 100%
remaining activity at 1 µM [3, 10]: 100%
remaining activity at 1 µM [4, 10]: 54.5%
remaining activity at 1 µM [5, 10]: 100%
remaining activity at 1 µM [6, 10]: 87%
remaining activity at 1 µM [7, 10]: 99%
remaining activity at 1 µM [8, 10]: 100%
remaining activity at 1 µM [9, 10]: 95%
SMILES: CC(C)(C)NS(=O)(=O)c1cccc(NC(=O)c2ccc(S(=O)(=O)NC(C)(C)C)cc2N2CCC3(CC2)CC3)c1 [AM-1882]

remaining activity at 1 µM [1, 11]: 100%
remaining activity at 1 µM [2, 11]: 66.5%
remaining activity at 1 µM [3, 11]: 100%
remaining activity at 1 µM [4, 11]: 17.5%
remaining activity at 1 µM [5, 11]: 100%
remaining activity at 1 µM [6, 11]: 92.5%
remaining activity at 1 µM [7, 11]: 81.5%
remaining activity at 1 µM [8, 11]: 95%
remaining activity at 1 µM [9, 11]: 92%
SMILES: C[C@@H]1CN(c2cccc(NC(=O)c3ccc(NS(=O)(=O)CCO)cc3N3CCC4(CC3)CC4)n2)CCO1 [AM-5308]

remaining activity at 1 µM [1, 12]: 100%
remaining activity at 1 µM [2, 12]: 100%
remaining activity at 1 µM [3, 12]: 100%
remaining activity at 1 µM [4, 12]: 40%
remaining activity at 1 µM [5, 12]: 100%
remaining activity at 1 µM [6, 12]: 95%
remaining activity at 1 µM [7, 12]: 98%
remaining activity at 1 µM [8, 12]: 100%
remaining activity at 1 µM [9, 12]: 92%
SMILES: CC(C)(CO)Nc1ccc(C(=O)Nc2cccc(S(=O)(=O)C3CCCC3)c2)c(N2CCC3(CC2)CC3)n1 [AM-0277]
